From ChEMBL document CHEMBL5042474, “Structure-Guided Discovery of Potent and Selective DYRK1A Inhibitors” (J Med Chem, 2021)

How the values were obtained:
RS4-11 [1] = experiment: Antitumor activity against human RS4-11 cells xenografted in BALB/c nu/nu mouse assessed as reduction in DYRK1A autophosphorylation of S520 residue at 3.125 mg/kg, po measured after 2 hrs by western blotting analysis relative to control; type: functional; set-up: scale not given: the % may be the effect or the level left
A2780 [2] = experiment: cells; details: Homo sapiens
A2780 [3] = experiment: cells; details: Homo sapiens, A2780, 120 h
[4] = Oral bioavailability in BALB/c nu/nu mouse at 3 mg/kg; type: ADME, organism-based; details: in vivo
RS4-11 [5] = experiment: Antitumor activity against human RS4-11 cells xenografted in BALB/c nu/nu mouse assessed as reduction in DYRK1A autophosphorylation of S520 residue at 6.25 mg/kg, po measured after 2 hrs by western blotting analysis relative to control; type: functional; set-up: scale not given: the % may be the effect or the level left
A2780 [6] = experiment: Antitumour activity against human A2780 cells xenografted in Balb/c mouse assessed as tumour volume T/C at 37.5 mg/kg, po bid for 14 days relative to control; details: time 14 day
A2780 [7] = experiment: Antitumour activity against human A2780 cells xenografted in Balb/c mouse assessed as tumor volume T/C at 9.5 mg/kg, po bid for 14 days relative to control; details: time 14 day
[8] = molecular target: Dual specificity tyrosine-phosphorylation-regulated kinase 1A (Homo sapiens, UniProt Q13627); experiment: Residual activity of DYRK1A (unknown origin) at 10 nM using Ulight-MBP as substrate and ATP as co-substrate incubated for 40 mins and measured after 1 hr by TR-FRET assay relative to control; details: time 100.0 min
A2780 [9] = experiment: Antitumor activity against human A2780 cells xenografted in Balb/c mouse assessed as tumor volume T/C at 75 mg/kg, po bid for 14 days relative to control; details: time 14 day
A2780 [10] = experiment: Antitumour activity against human A2780 cells xenografted in mouse assessed as reduction in DYRK1A autophosphorylation of S520 residue at 4.687 mg/kg, po meausred after 6 hrs by western blotting analysis relative to control; type: functional; set-up: scale not given: the % may be the effect or the level left
[11] = molecular target: T1, Dual specificity tyrosine-phosphorylation-regulated kinase 2 (Homo sapiens) (UniProt Q92630); experiment: Residual activity of DYRK2 (unknown origin) at 10 nM using Ulight-MBP as substrate and ATP as co-substrate incubated for 40 mins and measured after 1 hr by TR-FRET assay relative to control; details: time 100.0 min
T1 sequence (whole entry): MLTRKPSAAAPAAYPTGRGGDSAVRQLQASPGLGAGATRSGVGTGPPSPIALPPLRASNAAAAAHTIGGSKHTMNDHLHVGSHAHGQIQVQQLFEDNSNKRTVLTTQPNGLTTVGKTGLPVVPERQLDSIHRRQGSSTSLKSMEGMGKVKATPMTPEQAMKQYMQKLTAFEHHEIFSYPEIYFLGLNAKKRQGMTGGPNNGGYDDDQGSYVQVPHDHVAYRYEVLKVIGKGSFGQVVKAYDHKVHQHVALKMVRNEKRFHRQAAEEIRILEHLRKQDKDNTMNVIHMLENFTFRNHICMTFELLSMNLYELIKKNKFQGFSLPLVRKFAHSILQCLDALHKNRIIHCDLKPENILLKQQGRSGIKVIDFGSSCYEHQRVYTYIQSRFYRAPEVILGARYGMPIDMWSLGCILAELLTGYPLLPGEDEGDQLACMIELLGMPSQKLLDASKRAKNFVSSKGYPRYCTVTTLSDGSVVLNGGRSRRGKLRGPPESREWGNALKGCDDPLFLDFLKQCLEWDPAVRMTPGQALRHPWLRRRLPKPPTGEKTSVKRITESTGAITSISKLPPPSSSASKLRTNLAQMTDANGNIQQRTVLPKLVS

A2780 [12] = experiment: Antitumor activity against human A2780 cells xenografted in Balb/c mouse assessed as inhibition of tumor growth at 75 mg/kg, po bid for 14 days relative to control; type: functional; details: 336 h, time 14 day, read-out: TGI
[13] = Toxicity in Balb/c nude mouse xenografted with human A2780 cells assessed as decrease in body weight at 18.75 mg/kg, po bid for 14 days relative to control; type: organism-based; set-up: scale not given: the % may be the effect or the level left; details: in vivo, 336 h, time 14 day
A2780 [14] = experiment: Antitumor activity against human A2780 cells xenografted in BALB/c […] mouse assessed as reduction in DYRK1A autophosphorylation of S520 residue at 75 mg/kg, po measured after 2 hrs by western blotting analysis relative to control; type: functional; set-up: scale not given: the % may be the effect or the level left
A2780 [15] = experiment: Antitumor activity against human A2780 cells xenografted in Balb/c mouse assessed as inhibition of tumor growth at 37.5 mg/kg, po bid for 14 days relative to control; type: functional; details: 336 h, time 14 day, read-out: TGI
A2780 [16] = experiment: Antitumor activity against human A2780 cells xenografted in Balb/c mouse assessed as inhibition of tumor growth at 18.75 mg/kg, po bid for 14 days relative to control; type: functional; details: 336 h, time 14 day, read-out: TGI
[17] = molecular target: Dual specificity protein kinase CLK2 (Homo sapiens) (UniProt P49760); experiment: Residual activity of CLK2 (unknown origin) at 10 nM using Ulight-MBP as substrate and ATP as co-substrate incubated for 40 mins and measured after 1 hr by TR-FRET assay relative to control; details: time 100.0 min
Sequence of Dual specificity protein kinase CLK2 (Homo sapiens) (P49760 whole entry, looked up): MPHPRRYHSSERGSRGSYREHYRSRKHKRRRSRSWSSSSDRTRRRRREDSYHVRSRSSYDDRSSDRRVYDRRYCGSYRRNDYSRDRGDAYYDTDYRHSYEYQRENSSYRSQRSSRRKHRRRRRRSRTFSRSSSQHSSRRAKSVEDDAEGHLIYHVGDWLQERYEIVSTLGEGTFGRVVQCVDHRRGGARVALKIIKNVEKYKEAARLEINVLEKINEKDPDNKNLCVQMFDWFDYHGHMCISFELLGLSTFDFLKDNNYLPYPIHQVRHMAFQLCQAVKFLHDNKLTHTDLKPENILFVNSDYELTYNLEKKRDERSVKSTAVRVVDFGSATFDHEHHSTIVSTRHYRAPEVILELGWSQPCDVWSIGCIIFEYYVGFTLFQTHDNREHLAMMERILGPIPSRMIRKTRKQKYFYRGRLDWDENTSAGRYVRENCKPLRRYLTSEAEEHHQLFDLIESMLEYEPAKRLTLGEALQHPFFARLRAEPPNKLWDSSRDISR

RS4-11 [18] = experiment: Antitumor activity against human RS4-11 cells xenografted in BALB/c nu/nu mouse assessed as reduction in DYRK1A autophosphorylation of S520 residue at 12.5 mg/kg, po measured after 2 hrs by western blotting analysis relative to control; type: functional; set-up: scale not given: the % may be the effect or the level left
[19] = molecular target: T2, Dual specificity tyrosine-phosphorylation-regulated kinase 2 (Homo sapiens, UniProt Q92630); experiment: Inhibition of DYRK2 (unknown origin) using Ulight-MBP as substrate and ATP as co-substrate incubated for 40 mins and measured after 1 hr by TR-FRET assay
T2 sequence (Q92630 whole entry): T1 sequence (whole entry)

A2780 [20] = experiment: Antitumor activity against human A2780 cells xenografted in BALB/c […] mouse assessed as reduction in DYRK1A autophosphorylation of S520 residue at 75 mg/kg, po measured after 6 hrs by western blotting analysis relative to control; type: functional; set-up: scale not given: the % may be the effect or the level left
A2780 [21] = experiment: Antitumor activity against human A2780 cells xenografted in BALB/c nu/nu mouse assessed as reduction in DYRK1A autophosphorylation of S520 residue at 4.687 mg/kg, po measured after 2 hrs by western blotting analysis relative to control; type: functional; set-up: scale not given: the % may be the effect or the level left
A2780 [22] = experiment: Antitumor activity against human A2780 cells xenografted in BALB/c […] mouse assessed as reduction in DYRK1A autophosphorylation of S520 residue at 37.5 mg/kg, po measured after 6 hrs by western blotting analysis relative to control; type: functional; set-up: scale not given: the % may be the effect or the level left
A2780 [23] = experiment: Antitumor activity against human A2780 cells xenografted in Balb/c mouse assessed as inhibition of tumor growth at 9.5 mg/kg, po bid for 14 days relative to control; type: functional; details: 336 h, time 14 day, read-out: TGI

`Cc1nc2ccc(-c3cc(N)nc(N)c3)nc2n1C1CC1` showed an Activity (RS4-11 [1]) of 51%, an IC50 (A2780 [2]) of 0.126 µM and an IC50 (A2780 [3]) of 1.54 µM. It also gave a bioavailability [4] of 39%, an Activity (RS4-11 [5]) of 77% and a T/C (A2780 [6]) of 52%. The T/C (A2780 [7]) was 95%, the residual activity [8] was 9.2% and the T/C (A2780 [9]) was 24%. It also gave an Activity (A2780 [10]) of 0%, a residual activity [11] of 1.6% and an inhibition in vivo at 75 mg/kg (A2780 [12]) of 92%. It also gave an Activity [13] of 10.7%, an Activity (A2780 [14]) of 80% and an inhibition in vivo at 37.5 mg/kg (A2780 [15]) of 63%. For the same molecule, the inhibition in vivo at 18.75 mg/kg (A2780 [16]) was 55%, the residual activity [17] was 40% and the Activity (RS4-11 [18]) was 87%. The IC50 [19] was 0.003 µM, the Activity (A2780 [20]) was 92% and the Activity (A2780 [21]) was 60%. The Activity (A2780 [22]) was 95% and the inhibition in vivo at 9.5 mg/kg (A2780 [23]) was 28%.
